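Protocol summary: plate cells (96-well), add compound at 5 concentrations, incubate 48 h, interpolate endpoints linearly. GI50: concentration for 50% inhibition of growth. TGI is the concentration that stops growth completely.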
Experiments:
Experiment in all cases: NCI tumour cell line growth inhibition, 48 h
COLO 205 colon = test system: COLO 205 colon
CCRF-CEM leukemia = test system: CCRF-CEM leukemia
A549 NSCLC = test system: A549 NSCLC
HCC-2998 colon = test system: HCC-2998 colon
KM12 colon = test system: KM12 colon
HOP-62 NSCLC = test system: HOP-62 NSCLC
SK-MEL-2 melanoma = test system: SK-MEL-2 melanoma
OVCAR-5 ovarian = test system: OVCAR-5 ovarian
UACC-257 melanoma = test system: UACC-257 melanoma
SR leukemia = test system: SR leukemia

Question: What does the source list for `Clc1cc2nsnc2c(Cl)n1`?
Answer: TGI (COLO 205 colon): 31.7 µM; TGI (CCRF-CEM leukemia): 27.1 µM; TGI (A549 NSCLC): > 100 µM; TGI (HCC-2998 colon): > 100 µM; TGI (KM12 colon): > 100 µM; TGI (HOP-62 NSCLC): > 100 µM; TGI (SK-MEL-2 melanoma): 34 µM; TGI (OVCAR-5 ovarian): > 100 µM; TGI (UACC-257 melanoma): 72.3 µM

Question: `COc1cc(Cc2cnc(/N=C3\C(=O)N(CN4CCN(c5c(F)cc6c(=O)c(C(=O)O)cn(C7CC7)c6c5OC)CC4C)c4ccc(F)cc43)nc2N)cc(OC)c1OC` (configuration not stated) was tested. Which GI50 (COLO 205 colon) did it give?
Answer: The GI50 was 15 µM.

Question: What about the TGI (COLO 205 colon) of the same compound?
Answer: Its TGI is 58.8 µM.

Question: And the GI50 (CCRF-CEM leukemia)?
Answer: Its GI50 is 1.3 µM.

Question: What about the TGI (CCRF-CEM leukemia) of the same compound?
Answer: The TGI was 4.26 µM.

Question: And the GI50 (A549 NSCLC)?
Answer: The GI50 was 27 µM.

Question: What about the TGI (A549 NSCLC) of the same compound?
Answer: The TGI was greater than 100 µM.

Question: And the GI50 (HCC-2998 colon)?
Answer: Its GI50 is 12.6 µM.

Question: And the TGI (HCC-2998 colon)?
Answer: The TGI was 26.1 µM.

Question: What about the GI50 (KM12 colon) of the same compound?
Answer: The GI50 was 13.7 µM.

Question: And the TGI (KM12 colon)?
Answer: Its TGI is 35.9 µM.

Question: What about the GI50 (HOP-62 NSCLC) of the same compound?
Answer: Its GI50 is 14.4 µM.

Question: What about the TGI (HOP-62 NSCLC) of the same compound?
Answer: Its TGI is 27.4 µM.

Question: What about the GI50 (SK-MEL-2 melanoma) of the same compound?
Answer: Its GI50 is 37.8 µM.

Question: And the TGI (SK-MEL-2 melanoma)?
Answer: The TGI was greater than 100 µM.

Question: What about the GI50 (OVCAR-5 ovarian) of the same compound?
Answer: Its GI50 is 10.6 µM.

Question: And the TGI (OVCAR-5 ovarian)?
Answer: Its TGI is 22.5 µM.

Question: What about the GI50 (UACC-257 melanoma) of the same compound?
Answer: The GI50 was 22.3 µM.

Question: What about the TGI (UACC-257 melanoma) of the same compound?
Answer: The TGI was 44.1 µM.

Question: Which GI50 (COLO 205 colon) does the source give for `O=C(Nc1ccccc1)NS(=O)(=O)c1ccc(-n2nc3c(c2-c2cccs2)Cc2ccccc2-3)cc1` here?
Answer: The GI50 was 44 µM.

Question: And the TGI (COLO 205 colon)?
Answer: The TGI was greater than 100 µM.

Question: And the GI50 (CCRF-CEM leukemia)?
Answer: The GI50 was 13.6 µM.

Question: And the TGI (CCRF-CEM leukemia)?
Answer: The TGI was greater than 100 µM.

Question: And the GI50 (A549 NSCLC)?
Answer: Its GI50 is 20.8 µM.

Question: What about the TGI (A549 NSCLC) of the same compound?
Answer: The TGI was greater than 100 µM.

Question: And the GI50 (HCC-2998 colon)?
Answer: The GI50 was 15.3 µM.

Question: And the TGI (HCC-2998 colon)?
Answer: The TGI was 31.8 µM.

Question: And the GI50 (KM12 colon)?
Answer: Its GI50 is 8.08 µM.

Question: And the TGI (KM12 colon)?
Answer: The TGI was greater than 100 µM.

Question: And the GI50 (HOP-62 NSCLC)?
Answer: Its GI50 is 18.1 µM.

Question: What about the TGI (HOP-62 NSCLC) of the same compound?
Answer: The TGI was 47 µM.

Question: And the GI50 (SK-MEL-2 melanoma)?
Answer: The GI50 was 70.1 µM.

Question: What about the TGI (SK-MEL-2 melanoma) of the same compound?
Answer: Its TGI is greater than 100 µM.

Question: What about the GI50 (OVCAR-5 ovarian) of the same compound?
Answer: Its GI50 is 20.1 µM.

Question: And the TGI (OVCAR-5 ovarian)?
Answer: Its TGI is 89.7 µM.

Question: What about the GI50 (UACC-257 melanoma) of the same compound?
Answer: The GI50 was 17.7 µM.

Question: And the TGI (UACC-257 melanoma)?
Answer: Its TGI is 67.7 µM.

Question: For `Cn1c2ccccc2c2c(Nc3ccccc3)c3ccccc3nc21`, which GI50 (COLO 205 colon) is on record?
Answer: The GI50 was 59 µM.

Question: What about the TGI (COLO 205 colon) of the same compound?
Answer: The TGI was greater than 100 µM.

Question: What about the GI50 (HCC-2998 colon) of the same compound?
Answer: Its GI50 is 40.9 µM.

Question: What about the TGI (HCC-2998 colon) of the same compound?
Answer: The TGI was greater than 100 µM.

Question: What about the GI50 (SK-MEL-2 melanoma) of the same compound?
Answer: The GI50 was 80 µM.

Question: What about the TGI (SK-MEL-2 melanoma) of the same compound?
Answer: Its TGI is greater than 100 µM.

Question: And the GI50 (OVCAR-5 ovarian)?
Answer: Its GI50 is greater than 100 µM.

Question: What about the TGI (OVCAR-5 ovarian) of the same compound?
Answer: Its TGI is greater than 100 µM.

Question: And the GI50 (UACC-257 melanoma)?
Answer: Its GI50 is 33 µM.

Question: What about the TGI (UACC-257 melanoma) of the same compound?
Answer: The TGI was greater than 100 µM.

Question: What does the source list for `O=C(O)CCc1coc2ccc(O)cc12`?
Answer: TGI (COLO 205 colon): > 100 µM; TGI (CCRF-CEM leukemia): > 100 µM; TGI (A549 NSCLC): > 100 µM; TGI (HCC-2998 colon): > 100 µM; TGI (HOP-62 NSCLC): > 100 µM; TGI (UACC-257 melanoma): > 100 µM

Question: How did the TGI (CCRF-CEM leukemia) turn out when `COC1CCC2C(NS(=O)(=O)c3ccc(C)cc3)CCCC2O1` (configuration not stated) (tested in a mixture with another compound) was run?
Answer: Its TGI is greater than 34.5 µM.

Question: What about the TGI (A549 NSCLC) of the same compound?
Answer: The TGI was greater than 34.5 µM.

Question: What about the TGI (HCC-2998 colon) of the same compound?
Answer: The TGI was greater than 34.5 µM.

Question: What about the TGI (KM12 colon) of the same compound?
Answer: Its TGI is greater than 34.5 µM.

Question: And the TGI (HOP-62 NSCLC)?
Answer: Its TGI is greater than 34.5 µM.

Question: What about the TGI (SK-MEL-2 melanoma) of the same compound?
Answer: Its TGI is greater than 34.5 µM.

Question: What about the TGI (OVCAR-5 ovarian) of the same compound?
Answer: Its TGI is greater than 34.5 µM.

Question: What about the TGI (UACC-257 melanoma) of the same compound?
Answer: Its TGI is greater than 34.5 µM.

Question: With `CC1=C(C(=O)Nc2ccc(Cl)c(Cl)c2)C(c2cccc(Oc3ccccc3)c2)NC(=S)N1` (configuration not stated) as the compound, how does the GI50 (COLO 205 colon) read?
Answer: Its GI50 is 9.38 µM.

Question: What about the TGI (COLO 205 colon) of the same compound?
Answer: Its TGI is 21.1 µM.

Question: And the GI50 (SR leukemia)?
Answer: The GI50 was 44.9 µM.

Question: And the TGI (SR leukemia)?
Answer: Its TGI is greater than 50 µM.

Question: And the GI50 (A549 NSCLC)?
Answer: The GI50 was 9.51 µM.

Question: What about the TGI (A549 NSCLC) of the same compound?
Answer: The TGI was 23.7 µM.

Question: And the GI50 (KM12 colon)?
Answer: Its GI50 is 5.71 µM.

Question: And the TGI (KM12 colon)?
Answer: Its TGI is 12.6 µM.

Question: What about the GI50 (HOP-62 NSCLC) of the same compound?
Answer: The GI50 was 14.2 µM.

Question: And the TGI (HOP-62 NSCLC)?
Answer: The TGI was 24.2 µM.

Question: What about the GI50 (SK-MEL-2 melanoma) of the same compound?
Answer: Its GI50 is 9.38 µM.

Question: And the TGI (SK-MEL-2 melanoma)?
Answer: The TGI was 18.9 µM.

Question: What about the GI50 (OVCAR-5 ovarian) of the same compound?
Answer: Its GI50 is 9.38 µM.

Question: And the TGI (OVCAR-5 ovarian)?
Answer: Its TGI is 18.7 µM.

Question: What about the GI50 (UACC-257 melanoma) of the same compound?
Answer: The GI50 was 9.73 µM.

Question: And the TGI (UACC-257 melanoma)?
Answer: The TGI was 22 µM.

Question: With `O=C1C2C(C(=O)N1OS(=O)(=O)c1ccccc1)N(Cc1ccccc1)C(=O)N2Cc1ccccc1` (configuration not stated) as the compound, how does the TGI (COLO 205 colon) read?
Answer: The TGI was greater than 100 µM.

Question: And the TGI (SR leukemia)?
Answer: Its TGI is greater than 100 µM.

Question: And the TGI (CCRF-CEM leukemia)?
Answer: Its TGI is greater than 100 µM.

Question: And the TGI (A549 NSCLC)?
Answer: Its TGI is greater than 100 µM.

Question: And the TGI (HCC-2998 colon)?
Answer: Its TGI is greater than 100 µM.

Question: And the TGI (KM12 colon)?
Answer: The TGI was greater than 100 µM.

Question: And the TGI (HOP-62 NSCLC)?
Answer: Its TGI is greater than 100 µM.

Question: And the TGI (OVCAR-5 ovarian)?
Answer: The TGI was greater than 100 µM.

Question: And the TGI (UACC-257 melanoma)?
Answer: Its TGI is greater than 100 µM.

Question: Which TGI (SR leukemia) does the source give for `O=C(O)CSc1ccc([N+](=O)[O-])cc1[N+](=O)[O-]` here?
Answer: Its TGI is greater than 100 µM.

Question: And the TGI (A549 NSCLC)?
Answer: The TGI was greater than 100 µM.

Question: And the TGI (HCC-2998 colon)?
Answer: The TGI was greater than 100 µM.

Question: And the TGI (KM12 colon)?
Answer: Its TGI is greater than 100 µM.

Question: What about the TGI (HOP-62 NSCLC) of the same compound?
Answer: Its TGI is greater than 100 µM.

Question: What about the TGI (SK-MEL-2 melanoma) of the same compound?
Answer: The TGI was greater than 100 µM.

Question: What about the TGI (OVCAR-5 ovarian) of the same compound?
Answer: The TGI was greater than 100 µM.

Question: And the TGI (UACC-257 melanoma)?
Answer: The TGI was greater than 100 µM.
